Measured values: patent US12514882B2, “Faecalibacterium prausnitzii strain EB-FPDK11 and use thereof” (ENTEROBIOME INC., priority 2020, dated 2026)
Values after ≈ are worked out from the molar mass of the structure shown.

What was measured:
Type in all cases: cell-based
[1] = system: Faecalibacterium prausnitzii EB-FPDK11 strain; experiment: MIC, liquid medium microdilution (CLSI), EB-FPDK11; conditions: for MIC breakpoint category (S/I/R): EB-FPDK11; for resistance or susceptibility of the EB-FPDK11 strain to the agent (in words): text summary of Table 4
[2] = system: Faecalibacterium prausnitzii DSM 17677^T; experiment: MIC, liquid medium microdilution (CLSI), standard strain; conditions: for MIC breakpoint category (S/I/R): DSM 17677^T
[3] = system: Bacteroides thetaiotaomicron ATCC 29741; experiment: MIC, liquid medium microdilution (CLSI), QC strain; conditions: ATCC29741

Question: For `O=C(N[C@H](CO)[C@H](O)c1ccc([N+](=O)[O-])cc1)C(Cl)Cl` [CHL, chloramphenicol], which “MIC breakpoint category (S/I/R)” value ([1]; CHL breakpoints) is on record?
Answer: S (≤8)

Question: And the “resistance or susceptibility of the EB-FPDK11 strain to the agent (in words)” value (from here on “resistance or susceptibility”) [1]?
Answer: susceptibility

Question: What about the “MIC breakpoint category (S/I/R)” value ([2]; CHL breakpoints) of the same compound?
Answer: R (≥32)

Question: What does the source list for `CCC[C@@H]1C[C@@H](C(=O)N[C@@H]([C@H]2O[C@H](SC)[C@H](O)[C@@H](O)[C@H]2O)[C@H](C)Cl)N(C)C1` [CLI, clindamycin]?
Answer: MIC breakpoint category (S/I/R) ([1]; CLI breakpoints): (S) (≤2); MIC breakpoint category (S/I/R) ([2]; CLI breakpoints): (S) (≤2)

Question: Which “MIC breakpoint category (S/I/R)” value ([1]; CTZ breakpoints) does the source give for `CO/N=C(\C(=O)N[C@@H]1C(=O)N2C(C(=O)O)=CCS[C@H]12)c1csc(N)n1` [CTZ, ceftizoxime] here?
Answer: R (≥128)

Question: What about the “resistance or susceptibility” value [1] of the same compound?
Answer: resistance

Question: What about the “MIC breakpoint category (S/I/R)” value ([2]; CTZ breakpoints) of the same compound?
Answer: I (64)

Question: Which results are given for `C[C@@H](O)[C@H]1C(=O)N2C(C(=O)O)=C(S[C@@H]3CN[C@H](C(=O)N(C)C)C3)[C@H](C)[C@H]12` [MEM, meropenem]?
Answer: MIC breakpoint category (S/I/R) ([1]; MEM breakpoints): R (≥16); resistance or susceptibility of the EB-FPDK11 strain to the agent (in words) [1]: resistance; MIC breakpoint category (S/I/R) ([2]; MEM breakpoints): R (≥16); MIC [3]: 0.5 mg/L (≈ 1.3 µM)

Question: What does the source list for `Cc1ncc([N+](=O)[O-])n1CCO` [MTZ, metronidazole]?
Answer: MIC breakpoint category (S/I/R) ([1]; MTZ breakpoints): 5; resistance or susceptibility of the EB-FPDK11 strain to the agent (in words) [1]: susceptibility; MIC breakpoint category (S/I/R) ([2]; MTZ breakpoints): S (≤8)

Question: With `COc1c(N2C[C@@H]3CCCN[C@@H]3C2)c(F)cc2c(=O)c(C(=O)O)cn(C3CC3)c12` [MXF, moxifloxacin] as the compound, how does the “MIC breakpoint category (S/I/R)” value ([1]; MXF breakpoints) read?
Answer: R (≥8)

Question: What about the “MIC breakpoint category (S/I/R)” value ([2]; MXF breakpoints) of the same compound?
Answer: R (≥8)

Question: How did the “MIC breakpoint category (S/I/R)” value ([1]; PTZ breakpoints) turn out when Piperacillin-tazobactam [PTZ] was run?
Answer: R (≥128/4)

Question: And the MIC ([1]; test strain EB-FPDK11)?
Answer: 256/4

Question: What about the “resistance or susceptibility” value [1] of the same compound?
Answer: resistance

Question: What about the “MIC breakpoint category (S/I/R)” value ([2]; PTZ breakpoints) of the same compound?
Answer: R (≥128/4)

Question: What about the MIC ([2]; test strain DSM 17677^T) of the same compound?
Answer: 256/4
